# Results from US20230183746A1, “COMPOSITIONS FOR TRANSFER OF CARGO TO CELLS” (Sixfold Bioscience Ltd., priority 2019, published 2023).
# “Also recorded” adds a separate entry of the source. {Cy5} = Cy5 fluorescent dye; r = 2'-OH (RNA); f = 2'-fluoro
# Experiments:
# [1] = test system: EGFRvIII overexpressing HEK293T cells; assay: FACS based fluorescent molecule uptake assay; format: cell-based; conditions: 200 nM, 2 hours
# Source text: A number of different cell types have been trialled for a FACS based fluorescent molecule uptake assay. These include stably transfected HEK293T cells overexpressing the truncated mutant EGFRvIII, which is characterised by a deletion of 267 amino acids in the extracellular domain and results in a receptor unable to bind ligand yet constitutively active. WT cells with various endogenous levels of EGFR expression have also been trialled: HELA cells (EGFR+), MCF-7 (EGFR-), MDA-MB-231 (EGFR+), and A549 (EGFR+). Seeding densities used were identical for all experiments and described below.
# Cells were plated with 1x10^5 cells per well of 24 well plates. 24 hours later cells were treated with 200 nM of specified aptamer (A-1.0 or A-2.0) or nucleic acid nanoparticle in 250 µL DMEM media for 2 hours. To terminate internalisation, media was removed from cells and washed with 500 µL Dulbecco’s Phosphate Buffered Saline (D-PBS), followed by trypsinisation, neutralisation in DMEM media and transfer to labelled 1.5 mL Eppendorf tubes. […]
# Geometric mean quantification of flow cytometry results after normalisation by removal of respective background fluorescence in untreated cells. Numbers above the bars are calculated fold increase in internalisation between control and EGFRvIII overexpressing HEK293T cells. […]
# [2] = test system: cancer cells expressing EGFR; assay: confocal microscopy of Cy5-labelled aptamer/construct uptake; format: cell-based; conditions: live HeLa cells, 200 nM, Lysotracker and early endosome GFP stains
# Procedure: Cells were imaged by confocal microscopy after treatment with 200 nM Cy5-labelled E07min aptamer (A-1.0) or 200 nM Cy5-labelled constructs (SQ1-1000-001). For aptamer uptake experiments, 1x10^4 cells were plated in each well of a µ-Slide 8 well ibiditreat chamber (IBIDI), in 300 µL DMEM containing 10% v/v FBS. For uptake experiments, 3.4x10^3 cells (HeLa, MDA-MB-231 and A549 cells) or 6.8x10^3 cells (Mcf-7) were plated in each well of a µ-Slide 18 well ibiditreat chamber (IBIDI), in 100 µL DMEM containing 10% v/v FBS. 5 hours after cells had adhered and 48 hours before imaging, media was replaced with 50 particles per cell (PPC) CellLight early endosome-GFP (Thermo Fisher Scientific) for overnight incubation at 37° C. Additionally, 200 µL DMEM aliquots containing 200 nM aptamer were added to cells at corresponding incubation time points. Subsequently, media was removed and replaced with 60 nM LysoTracker Red DND-99 (Thermo Fisher Scientific) in 100-200 µL DMEM for 1 hour at 37° C. Cells were then washed once with Hank’s Balanced Salt Solution (HBSS) (Gibco). Finally, 100-200 µL imaging media (HBSS buffered with 20 mM 4-(2- hydroxyethyl)-1-piperazineethanesulfonic acid (HEPES), adjusted to pH 7.4) was added to cells. Confocal images were captured with an EVOS microscope or a Zeiss LSM510 laser scanning microscope using 60x oil objective lens. Images were produced using ImageJ software.
substance,measurement,setting,value
"[Cy5] GGAcGGAuuuAAucGccGuAGAAAAGCAuGucAAAGccGGAAccGucc (GGACGGAUUUAAUCGCCGUAGAAAAGCAUGUCAAAGCCGGAACCGUCC; sugars from the 5' end rrrfrrrfffrrffrffrfrrrrrrrrrfrffrrrrffrrrrffrfff, 5' {Cy5}, backbone not given here) [A-1.0, 2′F U, C 5′ Cy5 E07min (SXF1) aptamer, anti-EGFR, literature-known]",EGFR targeting specificity compared to a scramble control aptamer (A-3.0),[1]; control vs EGFRvIII overexpressing HEK293T cells,10 fold
same,specificity of uptake (flow cytometry),[1]; Cy5-labelled aptamer,more specifically uptaken than SXF2 (CL4 aptamer); also recorded: specifically uptaken by EGFR expressing cells
same,intracellular localisation after internalisation,[2],accumulate in lysosomes after internalisation
